Assay results: ChEMBL document CHEMBL5291721, “A preclinical secondary pharmacology resource illuminates target-adverse drug reaction associations of marketed drugs” (Nat Commun, 2023)

How the values were obtained:
[1] = target: T1, Alpha-1A adrenergic receptor (Homo sapiens, UniProt P35348)
T1 sequence (P35348 whole entry): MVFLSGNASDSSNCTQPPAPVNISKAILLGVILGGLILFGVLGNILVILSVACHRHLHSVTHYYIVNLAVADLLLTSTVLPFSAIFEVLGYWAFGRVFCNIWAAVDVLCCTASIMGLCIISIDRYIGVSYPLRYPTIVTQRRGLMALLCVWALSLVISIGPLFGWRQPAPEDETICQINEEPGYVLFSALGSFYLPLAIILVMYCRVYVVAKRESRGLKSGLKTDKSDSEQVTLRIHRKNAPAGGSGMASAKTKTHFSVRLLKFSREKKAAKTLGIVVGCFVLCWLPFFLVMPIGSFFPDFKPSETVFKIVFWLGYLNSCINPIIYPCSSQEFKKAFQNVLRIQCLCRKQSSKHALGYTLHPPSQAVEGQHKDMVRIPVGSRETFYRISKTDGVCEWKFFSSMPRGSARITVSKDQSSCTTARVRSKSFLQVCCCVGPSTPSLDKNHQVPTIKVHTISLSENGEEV

Cannabinoid receptor 1 = Cannabinoid receptor 1 (Homo sapiens, UniProt P21554)
Cannabinoid receptor 1, sequence (P21554 whole entry): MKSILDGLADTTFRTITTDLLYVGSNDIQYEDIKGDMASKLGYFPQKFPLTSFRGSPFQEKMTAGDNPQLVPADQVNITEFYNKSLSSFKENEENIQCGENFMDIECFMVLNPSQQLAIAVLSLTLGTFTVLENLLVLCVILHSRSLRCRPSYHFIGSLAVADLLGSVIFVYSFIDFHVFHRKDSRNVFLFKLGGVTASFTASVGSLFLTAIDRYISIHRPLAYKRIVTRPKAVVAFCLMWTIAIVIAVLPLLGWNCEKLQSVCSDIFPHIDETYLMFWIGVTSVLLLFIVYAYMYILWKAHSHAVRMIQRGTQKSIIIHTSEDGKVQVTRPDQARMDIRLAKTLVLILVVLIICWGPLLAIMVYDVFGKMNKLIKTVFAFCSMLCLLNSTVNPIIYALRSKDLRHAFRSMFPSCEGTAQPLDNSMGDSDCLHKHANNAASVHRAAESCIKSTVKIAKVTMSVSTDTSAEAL

Glucocorticoid receptor = target: T2, Glucocorticoid receptor (Homo sapiens, UniProt P04150); assay type: functional
T2 sequence (P04150 whole entry): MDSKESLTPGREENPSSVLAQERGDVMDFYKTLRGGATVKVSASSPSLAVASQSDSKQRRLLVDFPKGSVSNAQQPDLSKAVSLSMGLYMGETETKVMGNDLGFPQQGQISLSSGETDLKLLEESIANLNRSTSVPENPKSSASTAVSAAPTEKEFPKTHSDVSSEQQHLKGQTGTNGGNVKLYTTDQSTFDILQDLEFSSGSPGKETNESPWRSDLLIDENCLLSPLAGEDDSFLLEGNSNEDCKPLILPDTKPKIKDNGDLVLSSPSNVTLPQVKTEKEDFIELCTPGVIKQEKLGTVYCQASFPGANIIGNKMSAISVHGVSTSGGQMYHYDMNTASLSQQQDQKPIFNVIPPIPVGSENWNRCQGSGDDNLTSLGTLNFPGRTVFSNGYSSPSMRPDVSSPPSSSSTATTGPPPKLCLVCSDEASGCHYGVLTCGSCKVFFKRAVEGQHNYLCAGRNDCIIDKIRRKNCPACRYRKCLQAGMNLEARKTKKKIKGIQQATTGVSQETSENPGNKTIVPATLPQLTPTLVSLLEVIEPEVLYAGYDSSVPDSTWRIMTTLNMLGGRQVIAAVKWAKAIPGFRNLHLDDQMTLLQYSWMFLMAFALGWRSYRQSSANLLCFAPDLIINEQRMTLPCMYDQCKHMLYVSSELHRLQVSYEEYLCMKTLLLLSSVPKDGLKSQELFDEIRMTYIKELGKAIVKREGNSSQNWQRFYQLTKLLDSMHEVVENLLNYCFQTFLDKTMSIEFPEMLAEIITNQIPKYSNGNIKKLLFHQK

[2] = target: T3, Muscarinic acetylcholine receptor M2 (Homo sapiens, UniProt P08172)
T3 sequence (P08172 whole entry): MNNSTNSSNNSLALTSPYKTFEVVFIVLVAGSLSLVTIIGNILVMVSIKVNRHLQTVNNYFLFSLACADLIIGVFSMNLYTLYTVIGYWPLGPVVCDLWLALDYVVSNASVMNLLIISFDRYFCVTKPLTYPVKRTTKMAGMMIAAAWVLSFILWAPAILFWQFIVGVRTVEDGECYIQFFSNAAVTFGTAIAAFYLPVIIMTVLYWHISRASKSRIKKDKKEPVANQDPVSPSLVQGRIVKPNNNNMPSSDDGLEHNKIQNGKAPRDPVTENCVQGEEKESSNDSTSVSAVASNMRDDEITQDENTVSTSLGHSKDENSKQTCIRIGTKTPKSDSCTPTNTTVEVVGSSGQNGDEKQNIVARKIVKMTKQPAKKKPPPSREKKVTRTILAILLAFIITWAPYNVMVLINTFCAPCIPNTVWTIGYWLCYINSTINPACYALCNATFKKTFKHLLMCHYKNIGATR

Histamine H1 receptor = Histamine H1 receptor (Homo sapiens, UniProt P35367)
Histamine H1 receptor, sequence (P35367 whole entry): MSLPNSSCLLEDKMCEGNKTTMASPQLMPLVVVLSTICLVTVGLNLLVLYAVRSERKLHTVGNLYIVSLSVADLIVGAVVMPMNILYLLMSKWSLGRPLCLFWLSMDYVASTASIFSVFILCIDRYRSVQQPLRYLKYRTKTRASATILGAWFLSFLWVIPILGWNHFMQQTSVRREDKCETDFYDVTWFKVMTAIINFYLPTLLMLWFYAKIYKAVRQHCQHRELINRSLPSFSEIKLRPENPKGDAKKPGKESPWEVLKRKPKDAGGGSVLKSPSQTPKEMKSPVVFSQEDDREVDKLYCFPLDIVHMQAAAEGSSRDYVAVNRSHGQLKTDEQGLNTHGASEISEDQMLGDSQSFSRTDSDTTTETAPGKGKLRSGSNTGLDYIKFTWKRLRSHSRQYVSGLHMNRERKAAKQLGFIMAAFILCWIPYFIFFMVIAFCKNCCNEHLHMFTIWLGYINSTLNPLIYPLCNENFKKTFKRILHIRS

[3] = target: Sodium-dependent serotonin transporter (Homo sapiens, UniProt P31645)
Sodium-dependent serotonin transporter, sequence (P31645 whole entry): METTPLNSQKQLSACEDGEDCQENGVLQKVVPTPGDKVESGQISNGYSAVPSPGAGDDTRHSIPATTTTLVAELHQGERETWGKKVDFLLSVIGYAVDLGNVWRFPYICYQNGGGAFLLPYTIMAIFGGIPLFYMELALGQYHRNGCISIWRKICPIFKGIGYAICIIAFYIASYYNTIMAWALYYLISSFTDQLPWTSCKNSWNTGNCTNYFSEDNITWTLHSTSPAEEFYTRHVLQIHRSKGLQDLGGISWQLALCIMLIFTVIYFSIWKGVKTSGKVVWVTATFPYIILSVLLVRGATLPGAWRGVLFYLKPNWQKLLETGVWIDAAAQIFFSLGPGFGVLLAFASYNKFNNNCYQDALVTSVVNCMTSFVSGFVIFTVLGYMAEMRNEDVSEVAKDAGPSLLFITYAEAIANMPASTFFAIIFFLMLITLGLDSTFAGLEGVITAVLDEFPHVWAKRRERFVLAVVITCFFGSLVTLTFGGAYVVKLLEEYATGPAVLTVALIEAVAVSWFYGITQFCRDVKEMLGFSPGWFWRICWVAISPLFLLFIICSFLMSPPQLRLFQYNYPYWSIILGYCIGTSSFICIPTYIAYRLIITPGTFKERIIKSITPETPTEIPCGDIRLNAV

[4] = target: Beta-3 adrenergic receptor (Homo sapiens, UniProt P13945)
Beta-3 adrenergic receptor, sequence (P13945 whole entry): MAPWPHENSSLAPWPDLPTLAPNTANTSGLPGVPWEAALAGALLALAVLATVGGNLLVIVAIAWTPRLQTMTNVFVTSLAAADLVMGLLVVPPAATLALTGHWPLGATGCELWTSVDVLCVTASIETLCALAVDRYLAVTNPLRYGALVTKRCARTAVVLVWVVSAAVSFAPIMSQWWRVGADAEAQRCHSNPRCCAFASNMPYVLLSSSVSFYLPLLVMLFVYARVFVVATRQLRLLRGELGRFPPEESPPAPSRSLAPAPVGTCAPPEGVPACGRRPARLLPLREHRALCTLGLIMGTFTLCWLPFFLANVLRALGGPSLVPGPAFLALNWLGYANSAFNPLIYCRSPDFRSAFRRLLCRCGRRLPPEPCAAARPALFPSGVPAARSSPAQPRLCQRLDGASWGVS

[5] = target: T4, Corticotropin-releasing factor receptor 1 (Homo sapiens, UniProt P34998)
T4 sequence (P34998 whole entry): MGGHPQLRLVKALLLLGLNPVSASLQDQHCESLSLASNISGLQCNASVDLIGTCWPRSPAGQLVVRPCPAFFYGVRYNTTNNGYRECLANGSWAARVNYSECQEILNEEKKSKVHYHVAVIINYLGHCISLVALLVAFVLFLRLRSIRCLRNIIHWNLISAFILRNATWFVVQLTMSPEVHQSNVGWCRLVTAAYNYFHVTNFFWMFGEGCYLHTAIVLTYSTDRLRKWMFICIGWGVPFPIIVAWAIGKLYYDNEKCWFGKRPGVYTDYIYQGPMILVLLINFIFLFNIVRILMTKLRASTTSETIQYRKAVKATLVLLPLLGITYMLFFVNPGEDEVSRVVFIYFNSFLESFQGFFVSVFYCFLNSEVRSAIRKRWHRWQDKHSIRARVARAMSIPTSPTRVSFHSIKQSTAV

[6] = target: T5, Corticotropin-releasing factor receptor 2 (Homo sapiens, UniProt Q13324)
T5 sequence (Q13324 whole entry): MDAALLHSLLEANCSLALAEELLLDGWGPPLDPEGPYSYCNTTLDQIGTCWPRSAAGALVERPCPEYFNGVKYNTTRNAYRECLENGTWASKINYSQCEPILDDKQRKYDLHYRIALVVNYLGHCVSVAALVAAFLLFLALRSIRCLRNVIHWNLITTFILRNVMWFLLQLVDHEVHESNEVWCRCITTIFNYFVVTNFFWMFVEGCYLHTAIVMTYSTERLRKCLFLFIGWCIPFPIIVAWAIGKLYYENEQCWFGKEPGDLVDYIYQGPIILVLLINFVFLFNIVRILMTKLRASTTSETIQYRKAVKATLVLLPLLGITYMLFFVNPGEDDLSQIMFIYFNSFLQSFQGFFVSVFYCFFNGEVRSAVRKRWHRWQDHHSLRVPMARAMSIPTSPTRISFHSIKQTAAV

[7] = target: Neurotensin receptor type 1 (Homo sapiens, UniProt P30989)
Neurotensin receptor type 1, sequence (P30989 whole entry): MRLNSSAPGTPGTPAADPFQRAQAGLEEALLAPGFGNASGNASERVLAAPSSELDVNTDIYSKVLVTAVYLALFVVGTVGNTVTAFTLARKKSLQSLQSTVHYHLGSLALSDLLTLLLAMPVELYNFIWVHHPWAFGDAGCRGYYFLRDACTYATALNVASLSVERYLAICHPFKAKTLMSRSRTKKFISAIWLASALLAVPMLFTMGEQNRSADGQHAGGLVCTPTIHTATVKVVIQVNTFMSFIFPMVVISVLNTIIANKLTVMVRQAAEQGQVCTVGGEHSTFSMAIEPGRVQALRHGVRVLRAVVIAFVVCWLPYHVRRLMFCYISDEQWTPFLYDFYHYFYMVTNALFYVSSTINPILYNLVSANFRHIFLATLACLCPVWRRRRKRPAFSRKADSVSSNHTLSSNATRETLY
Further: assay procedure not described here.

| Structure (SMILES) | AC50 [1] | AC50 (Cannabinoid receptor 1) | AC50 (Glucocorticoid receptor) | AC50 [2] | AC50 (Histamine H1 receptor) | AC50 [3] | AC50 [4] | AC50 [5] | AC50 [6] | AC50 [7] |
| --- | --- | --- | --- | --- | --- | --- | --- | --- | --- | --- |
| CCc1oc2ccccc2c1C(=O)c1cc(Br)c(O)c(Br)c1 [BENZBROMARONE] | > 10 µM | > 10 µM | > 30 µM | 0.0373 µM | – | – | – | – | – | – |
| C=C(C)[C@@H]1CCC(C)=C[C@H]1c1c(O)cc(CCCCC)cc1O [CANNABIDIOL] | – | – | > 30 µM | – | > 30 µM | > 30 µM | – | – | – | – |
| COC(=O)[C@H](c1ccccc1Cl)N1CCc2sccc2C1 [CLOPIDOGREL] | > 10 µM | > 30 µM | > 30 µM | > 10 µM | – | – | > 30 µM | > 30 µM | > 30 µM | > 30 µM |
| C[C@H]1Oc2cc(cnc2N)-c2c(nn(C)c2C#N)CN(C)C(=O)c2ccc(F)cc21 [LORLATINIB] | – | – | > 30 µM | – | > 30 µM | > 30 µM | – | – | – | – |
| O=C1NC(=O)C(c2ccccc2)(c2ccccc2)N1 [PHENYTOIN] | > 10 µM | > 10 µM | > 30 µM | – | – | – | > 30 µM | > 30 µM | > 30 µM | > 30 µM |
| CC(C)C[C@H](CN)CC(=O)O [PREGABALIN] | – | > 30 µM | > 30 µM | – | > 30 µM | > 30 µM | > 30 µM | > 30 µM | > 30 µM | > 30 µM |
| CNC(=O)c1cc(Oc2ccc(NC(=O)Nc3ccc(Cl)c(C(F)(F)F)c3)c(F)c2)ccn1 [REGORAFENIB] | – | – | > 30 µM | – | > 30 µM | > 30 µM | – | – | – | – |
| CCOc1cc(CC(=O)N[C@@H](CC(C)C)c2ccccc2N2CCCCC2)ccc1C(=O)O [REPAGLINIDE] | – | – | > 30 µM | – | > 30 µM | > 30 µM | – | – | – | – |
| CCCN(CCC)CCc1cccc2c1CC(=O)N2 [ROPINIROLE] | > 10 µM | > 10 µM | > 30 µM | 12.1 µM | 14 µM | > 30 µM | > 30 µM | > 30 µM | > 30 µM | > 30 µM |
| CC(=O)S[C@@H]1CC2=CC(=O)CC[C@]2(C)[C@H]2CC[C@@]3(C)[C@@H](CC[C@@]34CCC(=O)O4)[C@H]12 [SPIRONOLACTONE] | 10.4 µM | > 10 µM | 5.5 µM | > 10 µM | – | – | > 30 µM | > 30 µM | > 30 µM | > 30 µM |
